In brackets after ≈: the same amount, converted by molar mass.

The results in this text go back to patent EP0170019A1, “Carbapenems having an ether group at position 4” (F. HOFFMANN-LA ROCHE & CO. Aktiengesellschaft, priority 1984, dated 1986).

Holding throughout (experiment): Minimal inhibitory concentration (MHK) on DST agar
What all share (assay type): cell-based

The subject of one assay is Pseudomonas aer. 1559E*. Particulars: Pseudomonas aer. 1559E* (ß-Lactamase producing). An excerpt: (§1) Die minimalen Hemmkonzentrationen (MHK) der (4S,5S,6S)--6-[(R)-1-Hydroxyäthyl]-4-methoxy-7-oxo -1-azabicyclo-[3.2.0]hept-2-en-2-carbonsäure (Verbindung A), der (4R,5S,-6S)-6-[(R)-1-Hydroxyäthyl]-3-[[(S)-1-(1-iminoäthyl) -3-pyrrolidinyl]thio]-4-methoxy-7-oxo -1-azabicyclo[3.2.0]-hept-2-en -2-carbonsäure (Verbindung B), der (4R.5S,6S)-4--Aethoxy-6-[(R)-1-hydroxyäthyl]-3-[(S) -3-pyrrolidinyl- thio]-7-oxo-1-azabicyclo[3.2.0]hept-2-en -2-carbonsäure (Verbindung C) und der (4R,5S,6S)-4-Aethoxy-6-[(R)-1--hydroxyäthyl]-3-[[(S)-1 -(1-iminoäthyl)-3-pyrrolidinyl]-thio]-7-oxo-1 -azabicyclo[3.2.0]hept-2-en-2-carbonsäure (Verbindung D) gegen eine Reihe pathogener Mikroorganismen wurden auf DST-Agar (Diagnostic Sensitivity Test Agar) bestimmt. Die erhaltenen Resultate sind in der nachfolgenden Tabelle aufgeführt:
(§2) Die ß-Lactamase produzierenden Organismen sind mit einem ^* bezeichnet.

Another assay relates to Staph. aureus 887*. Particulars: Staphylococcus aureus, Staph. aureus 887* (ß-Lactamase producing).
Excerpt: as §1, §2

The next assay has as its system Strept. faecalis 6. Particulars: Enterococcus faecalis.
Excerpt: as §1, §2

The subject of another assay is Prot. mirabilis 29H. Particulars: Proteus mirabilis.
Excerpt: as §1, §2

In another assay the test system is E. coli 1346. Particulars: Escherichia coli.
Excerpt: as §1, §2

The test system of another assay is Prot. mirabilis 2117*. Particulars: Proteus mirabilis, Prot. mirabilis 2117* (ß-Lactamase producing).
Excerpt: as §1, §2

In assay [1] the test system is Enterobacter cloacae 15M*. Particulars: Enterobacter cloacae 15M* (ß-Lactamase producing).
Excerpt: as §1, §2

The test system of another assay is Klebs. pneumoniae 418*. Particulars: Klebsiella pneumoniae, Klebs. pneumoniae 418* (ß-Lactamase producing).
Excerpt: as §1, §2

The subject of another assay is Klebs. aerogenes 1082E*. Particulars: Klebsiella aerogenes, Klebs. aerogenes 1082E* (ß-Lactamase producing).
Excerpt: as §1, §2

Assay [2] deals with Acinetobacter anitr. 5I-156. Particulars: ANITR.5I156.
Excerpt: as §1, §2

Assay [3] deals with Enterobacter cloacae 908*. Particulars: Enterobacter cloacae 908* (ß-Lactamase producing).
Excerpt: as §1, §2

For the next assay, the system named is E. coli 25922. Particulars: Escherichia coli.
Excerpt: as §1, §2

A further assay relates to Prot. vulgaris 1028*. Particulars: Proteus vulgaris, Prot. vulgaris 1028* (ß-Lactamase producing).
Excerpt: as §1, §2

The test system of another assay is E. coli 1527 E*. Particulars: Escherichia coli, E. coli 1527 E* (ß-Lactamase producing).
Excerpt: as §1, §2

Assay [4] deals with Serratia marcescens 803/15*. Particulars: Serratia marcescens 803/15* (ß-Lactamase producing).
Excerpt: as §1, §2

The test system of the next assay is Salmonella typh. BA.
Excerpt: as §1, §2

For another assay, the system named is Staph. aureus 6538. Particulars: Staphylococcus aureus.
Excerpt: as §1, §2

Another assay has as its system E. coli TEM 1*. Particulars: Escherichia coli, read-out: MHK.
Excerpt: as §1, §2

The subject of a further assay is Pseudomonas aer. BA*. Particulars: Pseudomonas aer. BA* (ß-Lactamase producing).
Excerpt: as §1, §2

For assay [5], the system named is Serratia marcescens 69438.
Excerpt: as §1, §2

In the case of `CCO[C@H]1C(S[C@H]2CCN(C(C)=N)C2)=C(C(=O)O)N2C(=O)[C@H]([C@@H](C)O)[C@@H]12` [Verbindung D, (4R,5S,6S)-4-Aethoxy-6-[(R)-1--hydroxyäthyl]-3-[[(S)-1-(1-iminoäthyl)-3-pyrrolidinyl]-thio]-7-oxo-1-azabicyclo[3.2.0]hept-2-en-2-carbonsäure], the MIC against Pseudomonas aer. 1559E* was 64 µg/mL (≈ 167 µM); in the assay with Staph. aureus 887*, 0.5 µg/mL (≈ 1.3 µM); with Strept. faecalis 6 it was 32 µg/mL (≈ 83.4 µM); in the assay on Prot. mirabilis 29H, 32 µg/mL (≈ 83.4 µM); with E. coli 1346, 1 µg/mL (≈ 2.61 µM); with Prot. mirabilis 2117*, 16 µg/mL (≈ 41.7 µM). Besides, the MIC came out at 4 µg/mL (≈ 10.4 µM) in [1]; 2 µg/mL (≈ 5.22 µM) in the assay on Klebs. pneumoniae 418*; 2 µg/mL (≈ 5.22 µM) with Klebs. aerogenes 1082E*; 2 µg/mL (≈ 5.22 µM) in assay [2]; 4 µg/mL (≈ 10.4 µM) in assay [3]; 2 µg/mL (≈ 5.22 µM) in the assay on E. coli 25922. Besides, the MIC came out at 16 µg/mL (≈ 41.7 µM) in the assay with Prot. vulgaris 1028*; 1 µg/mL (≈ 2.61 µM) against E. coli 1527 E*; 8 µg/mL (≈ 20.9 µM) in assay [4]; 2 µg/mL (≈ 5.22 µM) against Salmonella typh. BA; 0.25 µg/mL (≈ 0.652 µM) with Staph. aureus 6538; 0.5 µg/mL (≈ 1.3 µM) with E. coli TEM 1*. Moreover, the MIC in the assay with Pseudomonas aer. BA* was found to be 64 µg/mL (≈ 167 µM); in [5], 8 µg/mL (≈ 20.9 µM).

With `CO[C@H]1C=C(C(=O)O)N2C(=O)[C@H]([C@@H](C)O)[C@@H]12` [Verbindung A, (4S,5S,6S)--6-[(R)-1-Hydroxyäthyl]-4-methoxy-7-oxo-1-azabicyclo-[3.2.0]hept-2-en-2-carbonsäure], the MIC with Pseudomonas aer. 1559E* was over 32 µg/mL; against Staph. aureus 887*, 1 µg/mL (≈ 4.4 µM); in the assay with Strept. faecalis 6 it was 32 µg/mL (≈ 141 µM); against Prot. mirabilis 29H it was 8 µg/mL (≈ 35.2 µM); in the assay with E. coli 1346, 0.5 µg/mL (≈ 2.2 µM); against Prot. mirabilis 2117*, 4 µg/mL (≈ 17.6 µM). Further, the MIC in [1] worked out at 1 µg/mL (≈ 4.4 µM); against Klebs. pneumoniae 418*, 0.5 µg/mL (≈ 2.2 µM); with Klebs. aerogenes 1082E*, 1 µg/mL (≈ 4.4 µM); in assay [2], 2 µg/mL (≈ 8.8 µM); in assay [3], 1 µg/mL (≈ 4.4 µM); in the assay with E. coli 25922, 1 µg/mL (≈ 4.4 µM). Also, the MIC in the assay on Prot. vulgaris 1028* came to 4 µg/mL (≈ 17.6 µM); in the assay on E. coli 1527 E*, 0.5 µg/mL (≈ 2.2 µM); in [4], 2 µg/mL (≈ 8.8 µM); in the assay with Salmonella typh. BA, 1 µg/mL (≈ 4.4 µM); against Staph. aureus 6538, 0.5 µg/mL (≈ 2.2 µM); in the assay with E. coli TEM 1* it was 1 µg/mL (≈ 4.4 µM). Besides, the MIC in the assay on Pseudomonas aer. BA* was found to be 32 µg/mL (≈ 141 µM); in [5] it was 2 µg/mL (≈ 8.8 µM).

As to `CCO[C@H]1C(S[C@H]2CCNC2)=C(C(=O)O)N2C(=O)[C@H]([C@@H](C)O)[C@@H]12` [Verbindung C, (4R.5S,6S)-4--Aethoxy-6-[(R)-1-hydroxyäthyl]-3-[(S) -3-pyrrolidinyl-thio]-7-oxo-1-azabicyclo[3.2.0]hept-2-en-2-carbonsäure], the MIC was 64 µg/mL (≈ 187 µM) in the assay with Pseudomonas aer. 1559E*; 0.5 µg/mL (≈ 1.46 µM) in the assay with Staph. aureus 887*; 32 µg/mL (≈ 93.5 µM) in the assay on Strept. faecalis 6; 32 µg/mL (≈ 93.5 µM) in the assay on Prot. mirabilis 29H; 0.5 µg/mL (≈ 1.46 µM) with E. coli 1346; 16 µg/mL (≈ 46.7 µM) in the assay with Prot. mirabilis 2117*. Moreover, the MIC in [1] was 1 µg/mL (≈ 2.92 µM); with Klebs. pneumoniae 418*, 2 µg/mL (≈ 5.84 µM); in the assay on Klebs. aerogenes 1082E*, 2 µg/mL (≈ 5.84 µM); in [2] it was 1 µg/mL (≈ 2.92 µM); in assay [3], 1 µg/mL (≈ 2.92 µM); in the assay on E. coli 25922 it was 0.5 µg/mL (≈ 1.46 µM). Besides, the MIC in the assay on Prot. vulgaris 1028* is 32 µg/mL (≈ 93.5 µM); in the assay with E. coli 1527 E*, 0.25 µg/mL (≈ 0.73 µM); in assay [4], 4 µg/mL (≈ 11.7 µM); against Salmonella typh. BA, 0.5 µg/mL (≈ 1.46 µM); with Staph. aureus 6538 it was 0.25 µg/mL (≈ 0.73 µM); in the assay on E. coli TEM 1* it was 0.5 µg/mL (≈ 1.46 µM). Also, the MIC with Pseudomonas aer. BA* is 32 µg/mL (≈ 93.5 µM); in assay [5], 8 µg/mL (≈ 23.4 µM).

For the compound `CO[C@H]1C(S[C@H]2CCN(C(C)=N)C2)=C(C(=O)O)N2C(=O)[C@H]([C@@H](C)O)[C@@H]12` [Verbindung B, (4R,5S,-6S)-6-[(R)-1-Hydroxyäthyl]-3-[[(S)-1-(1-iminoäthyl) -3-pyrrolidinyl]thio]-4-methoxy-7-oxo-1-azabicyclo[3.2.0]-hept-2-en-2-carbonsäure], the MIC against Pseudomonas aer. 1559E* stood at 25 µg/mL (≈ 67.7 µM); against Staph. aureus 887*, 0.2 µg/mL (≈ 0.541 µM); in the assay on Strept. faecalis 6, 12.5 µg/mL (≈ 33.8 µM); in the assay with Prot. mirabilis 29H it was 25 µg/mL (≈ 67.7 µM); against E. coli 1346, 0.4 µg/mL (≈ 1.08 µM); with Prot. mirabilis 2117*, 12.5 µg/mL (≈ 33.8 µM). In addition, the MIC is 0.8 µg/mL (≈ 2.17 µM) in [1]; 0.4 µg/mL (≈ 1.08 µM) in the assay with Klebs. pneumoniae 418*; 0.8 µg/mL (≈ 2.17 µM) against Klebs. aerogenes 1082E*; 0.4 µg/mL (≈ 1.08 µM) in assay [2]; 0.8 µg/mL (≈ 2.17 µM) in [3]; 0.8 µg/mL (≈ 2.17 µM) with E. coli 25922. Further, the MIC with Prot. vulgaris 1028* came to 12.5 µg/mL (≈ 33.8 µM); against E. coli 1527 E*, 0.4 µg/mL (≈ 1.08 µM); in [4], 3.1 µg/mL (≈ 8.39 µM); against Salmonella typh. BA, 0.8 µg/mL (≈ 2.17 µM); in the assay on Staph. aureus 6538 it was 0.1 µg/mL (≈ 0.271 µM); against Pseudomonas aer. BA*, 25 µg/mL (≈ 67.7 µM). This compound yielded an MIC in assay [5] of 3.1 µg/mL (≈ 8.39 µM).
